Results: PMC5813016 (Nature Communications, 2018)
“And” between values parts separate entries of the source, which are not always exact repeats. Equal entries are not always repeated. “Also recorded” adds a separate entry of the source. Blank lines part the entries; values can stand above or below the compound they belong to.

Key:
[1] = tested on: human D1R S199A mutant; assay: cAMP assay, D1R mutant S199A; conditions: relative to wild-type D1R; each table line is one experiment (Experiment # 1-6)
[2] = Rat pharmacokinetic studies; assay type: in vivo, Wistar Hannover rat; conditions: for plasma concentration profile after oral administration: compared with SKF-38393; for clearance / Vd / bioavailability / half-life: male, Wistar Hannover, plasma; for clearance / Vd: iv; for Vd: read-out: Vdss; for bioavailability: oral bioavailability; for half-life: read-out: t½ (converted)
Procedure: Rat pharmacokinetic studies were conducted at BioDuro, Pharmaceutical Product Development, Inc. (Shanghai, China). Wistar Hannover rats (227–293 gram weight) were obtained from Vital River Laboratories (China). All animal studies were conducted in accordance with the Pfizer Institutional Animal Care and Use Committee (Groton, CT), using protocols approved by Pfizer PDM′s Global BA Committee (2009). Jugular vein-cannulated male Wistar Hanover rats were maintained on a 12 h light/dark cycle for a minimum of three days in a temperature-controlled and humidity-controlled environment with free access to food and water. Individual animals (n = 2 or 3 per dose/route) were administered a single dose of compound by either intravenous injection via tail vein or oral gavage based on body weight. […] The PF-6142 intravenous dose (1 mg/kg) was formulated in saline acidified with three molar equivalents of 1 N hydrochloric acid and the PF-6142 oral dose (5 mg/kg) was formulated in 0.5% methylcellulose. […] Formulations were agitated until all of the test article was dissolved. […] From each rat, serial blood samples were collected via jugular vein cannula prior to dose administration and at the following time points post-dose: 0.033 (i.v. only), 0.083, 0.25, 0.5, 1, 2, 4, 7, and 24 h. […] All blood samples were placed on wet ice until centrifugation. Following centrifugation, the plasma was transferred to polypropylene tubes and stored frozen at either −20 °C to −80 °C until analysis. Urine was collected from all intravenous-dosed rats into collection tubes from the collection intervals of 0–7 h and 7–24 h post-dose. […] All urine samples were stored at −80 °C until analysis. All samples were processed for quantitation of compound concentrations using protein precipitation methodology followed by analysis using liquid chromatography-tandem mass spectrometry (LC-MS/MS). […] The pharmacokinetic parameters (including those in Supplementary Table 3) were computed by non-compartmental analysis[61] using Watson Bioanalytical LIMS version 7.4 (Thermo Fischer Scientific, CA).

[3] = tested on: human D1R N334A mutant; assay: cAMP assay, D1R mutant N334A; conditions: relative to wild-type D1R; each table line is one experiment (Experiment # 1-6)
[4] = tested on: human D1R T59A mutant; assay: cAMP assay, D1R mutant T59A; conditions: relative to wild-type D1R; each table line is one experiment (Experiment # 1-6)
[5] = tested on: human D1R T273A mutant; assay: cAMP assay, D1R mutant T273A; conditions: relative to wild-type D1R; each table line is one experiment (Experiment # 1-6)
[6] = tested on: human D1R V270A mutant; assay: cAMP assay, D1R mutant V270A; conditions: relative to wild-type D1R; each table line is one experiment (Experiment # 1-6)
[7] = tested on: human D1R W318A mutant; assay: cAMP assay, D1R mutant W318A; conditions: relative to wild-type D1R; each table line is one experiment (Experiment # 1-6)
[8] = tested on: human D1R N292A mutant; assay: cAMP assay, D1R mutant N292A; conditions: relative to wild-type D1R; each table line is one experiment (Experiment # 1-6)
[9] = tested on: human D1R S188I mutant; assay: cAMP assay, D1R mutant S188I; conditions: relative to wild-type D1R; each table line is one experiment (Experiment # 1-6)
[10] = Plasma concentrations in monkey EBR study; assay type: in vivo, cynomolgus monkey; conditions: mean ± SD
Procedure: For both compounds, blood collections occurred on day 1, day 2, and day 3. All blood samples were placed on wet ice until centrifugation. Following centrifugation, the plasma was transferred to polypropylene tubes and stored frozen at –20 °C to –80 °C until analysis.

[11] = tested on: rats with unilateral 6-OHDA lesions; assay: Rat unilateral 6-OHDA lesion model, contralateral rotations; assay type: in vivo, Sprague-Dawley rat; conditions: for contralateral rotational behavior on repeated dosing: 6-OHDA lesioned rats, six doses every 12 h, A-77636 0.32 mg/kg s.c., PF-2334 10.78 mg/kg oral; for pairwise contrast of rotational speed, estimate: 6-OHDA rats
Procedure: Sprague-Dawley rats with 6-OHDA lesions were obtained from Taconic (Rensselaer, NY). For the lesion surgery rats (~175 g) were anesthetized with isoflurane and given desipramine to protect noradrenergic neurons (10 mg/kg). The medial forebrain was targeted using AP:−4.3 mm; ML:−1.2 mm; DV:8.3 mm using a 30 G cannula. […] The cannula was left in place post-infusion for 5 min. To assess the extent of the lesion animals were given an apomorphine (0.05 mg/kg S.C.) challenge 21 day after the lesion surgery. Matched sham lesioned animals from the same source received exactly the same procedures except saline was infused into the brain. Only animals with more than 180 contralateral rotations over 30 min or more than 30 rotations in multiple 5 min intervals were used for the study. Experiments began 12 weeks after lesion.
Rats with sham (n = 20) and unilateral 6-OHDA lesions (n = 17) were obtained and four weeks after lesion used for the study. […] Animals followed a normal light cycle (6:00 AM lights on and 6:00 PM lights off). Animals were provided with food and water ad libitum in the chambers. Activity was monitored with infrared ceiling cameras (Y-cam, London, UK) and rotational behavior was quantified by automated movie analysis via validated custom software. Animals were acclimated and recorded for 2 h to the test chambers prior to the first dose.
Rotational behavior was detected using custom software written in Python language, version 2.7. OpenCV library, version 2.10 was used for video analyses[73],[74]. R software, version 3.1.0, was used for statistical analyses. Rotational behavior is described as the average number of rotations per minute (RPM) during the 6 h period immediately following each dose. To quantify changes within each treatment group as well as differences between treatments over time we used a longitudinal mixed model two-way ANOVA[75] with time, treatment, and their interaction as fixed factors and animal as a random factor. Least-squares means for specified factors were estimated using lsmeans library. Post-hoc comparisons to reference time point were adjusted for multiple hypothesis testing via Dunnett′s method. All statistical tests were performed two-tailed at a 5% level of significance.

[12] = Equilibrium dialysis, unbound fraction in monkey plasma; assay type: in vitro ADME; conditions: read-out: unbound fraction in monkey plasma (fu,p)
[13] = Equilibrium dialysis, unbound fraction in rat brain homogenate; assay type: in vitro ADME; conditions: read-out: unbound fraction in rat brain homogenate (fu,b)
[14] = 0.9 mg/kg/day split oral dose, Day 1, 5 h post-dose
[15] = 0.9 mg/kg/day split oral dose, Day 2, 1 h post-dose
[16] = 0.9 mg/kg/day split oral dose, Day 2, 5 h post-dose
[17] = 0.9 mg/kg/day split oral dose, Day 3, 1 h post-dose
[18] = 0.9 mg/kg/day split oral dose, Day 3, 5 h post-dose
[19] = 1 mg/kg/day subcutaneous dose, Day 1, 1 h post-dose
[20] = 1 mg/kg/day subcutaneous dose, Day 1, 6 h post-dose
[21] = 1 mg/kg/day subcutaneous dose, Day 2, 1 h post-dose
[22] = 1 mg/kg/day subcutaneous dose, Day 2, 6 h post-dose
[23] = 1 mg/kg/day subcutaneous dose, Day 3, 1 h post-dose
[24] = 1 mg/kg/day subcutaneous dose, Day 3, 6 h post-dose

Structure (SMILES): Cc1cc(Oc2nccc3occc23)ccc1-c1c(C)ncc2nccn12 [PF-6142]
fold shift of cAMP functional potency, S199A (EC50 mutant/ EC50 WT) [1]: 8.7 and 10.0 | plasma concentration profile after oral administration [2]: more sustained plasma concentration profiles | clearance [2]: 42.5 mL/min/kg | Vd [2]: 2.4 L/kg | bioavailability [2]: 85.4% | half-life [2]: 66 min | fold shift of cAMP functional potency, N334A (EC50 mutant/ EC50 WT) [3]: 1.3 | fold shift of cAMP functional potency, T59A (EC50 mutant/ EC50 WT) [4]: 1.0 | fold shift of cAMP functional potency, T273A (EC50 mutant/ EC50 WT) [5]: 0.2 | fold shift of cAMP functional potency, V270A (EC50 mutant/ EC50 WT) [6]: 1.7 | fold shift of cAMP functional potency, W318A (EC50 mutant/ EC50 WT) [7]: 16.3 and 20.4 | fold shift of cAMP functional potency, N292A (EC50 mutant/ EC50 WT) [8]: 23.7 and 30.6 | fold shift of cAMP functional potency, S188I (EC50 mutant/ EC50 WT) [9]: 10.6 and 8.5 and 10.1 and 6.7

Structure (SMILES): Cc1n[nH]c(=O)c(C)c1-c1ccc(Oc2nccc3occc23)cc1F [PF-2334]
Cp (total plasma concentration) ([10]; 0.9 mg/kg/day split oral dose (0.6 + 0.3 mg/kg 8 h later), Day 1, 1 h post-dose): 41.9 ± 9.4 ng/mL | Cp,u (unbound plasma concentration) ([10]; 0.9 mg/kg/day split oral dose, Day 1, 1 h post-dose): 4.8 ± 1.1 nM | Cp (total plasma concentration) [10, 14]: 47.0 ± 13.9 ng/mL | Cp,u (unbound plasma concentration) [10, 14]: 5.4 ± 1.6 nM | Cp (total plasma concentration) [10, 15]: 71.4 ± 20.1 ng/mL | Cp,u (unbound plasma concentration) [10, 15]: 8.1 ± 2.3 nM | Cp (total plasma concentration) [10, 16]: 99.0 ± 36.3 ng/mL | Cp,u (unbound plasma concentration) [10, 16]: 11.3 ± 4.1 nM | Cp (total plasma concentration) [10, 17]: 89.5 ± 49.4 ng/mL | Cp,u (unbound plasma concentration) [10, 17]: 10.2 ± 5.6 nM | Cp (total plasma concentration) [10, 18]: 106 ± 40 ng/mL | Cp,u (unbound plasma concentration) [10, 18]: 12.1 ± 4.5 nM | plasma concentration profile after oral administration [2]: more sustained plasma concentration profiles | clearance [2]: 20.8 mL/min/kg | Vd [2]: 1.2 L/kg | bioavailability [2]: 57.2% | half-life [2]: 48 min | contralateral rotational behavior on repeated dosing [11]: significantly greater rotational behavior than A-77636 treated animals; also recorded: still displaying contralateral rotational behavior following the 6th dose | pairwise contrast of rotational speed, estimate ([11]; PF-2334 10.78 mg/kg p.o. every 12 h, contrast (time range, hours) 24 - 36, least-squares means): 0.4016 | pairwise contrast of rotational speed, estimate ([11]; PF-2334, contrast (hours) 24 - 48): 0.3322 | pairwise contrast of rotational speed, estimate ([11]; PF-2334, contrast (hours) 24 - 60): 0.371 | pairwise contrast of rotational speed, estimate ([11]; PF-2334, contrast (hours) 24 - 72 (72 h = quinpirole dose)): 1.093 | pairwise contrast of rotational speed, estimate ([11]; PF-2334, contrast (hours) 36 - 48): -0.06943 | pairwise contrast of rotational speed, estimate ([11]; PF-2334, contrast (hours) 36 - 60): -0.03066 | pairwise contrast of rotational speed, estimate ([11]; PF-2334, contrast (hours) 36 - 72 (72 h = quinpirole dose)): 0.6914 | pairwise contrast of rotational speed, estimate ([11]; PF-2334, contrast (hours) 48 - 60): 0.03877 | pairwise contrast of rotational speed, estimate ([11]; PF-2334, contrast (hours) 48 - 72 (72 h = quinpirole dose)): 0.7609 | pairwise contrast of rotational speed, estimate ([11]; PF-2334, contrast (hours) 60 - 72 (72 h = quinpirole dose)): 0.7221 | fraction unbound [12]: 0.04 | fraction unbound [13]: 0.021

Structure (SMILES): Cc1cc(Oc2nccc3occc23)ccc1-c1c(C)ncnc1C [PF-8871]
fold shift of cAMP functional potency, S199A (EC50 mutant/ EC50 WT) [1]: 4.3 | fold shift of cAMP functional potency, W318A (EC50 mutant/ EC50 WT) [7]: 12.5 | fold shift of cAMP functional potency, N292A (EC50 mutant/ EC50 WT) [8]: 30.7 | fold shift of cAMP functional potency, S188I (EC50 mutant/ EC50 WT) [9]: 5.8 and 10.8 and 8.7

Second part, led by results:

Cp (total plasma concentration) [10, 19]: 79.3 ± 11.4 ng/mL | Cp,u (unbound plasma concentration) [10, 19]: 10.6 ± 1.5 nM | Cp (total plasma concentration) [10, 20]: 34.8 ± 3.5 ng/mL | Cp,u (unbound plasma concentration) [10, 20]: 4.6 ± 0.5 nM | Cp (total plasma concentration) [10, 21]: 73.1 ± 13.8 ng/mL | Cp,u (unbound plasma concentration) [10, 21]: 9.8 ± 1.8 nM | Cp (total plasma concentration) [10, 22]: 46.3 ± 11.7 ng/mL | Cp,u (unbound plasma concentration) [10, 22]: 6.2 ± 1.6 nM | Cp (total plasma concentration) [10, 23]: 85.5 ± 19.0 ng/mL | Cp,u (unbound plasma concentration) [10, 23]: 11.4 ± 2.5 nM | Cp (total plasma concentration) [10, 24]: 40.6 ± 2.8 ng/mL | Cp,u (unbound plasma concentration) [10, 24]: 5.4 ± 0.4 nM | fraction unbound [12]: 0.044 | fraction unbound [13]: 0.0012
Structure (SMILES): NC[C@@H]1O[C@H](C23CC4CC(CC(C4)C2)C3)Cc2c1ccc(O)c2O [A-77636, reference compound]
contralateral rotational behavior on repeated dosing [11]: essentially zero contralateral rotational behavior

fold shift of cAMP functional potency, N334A (EC50 mutant/ EC50 WT) [3]: 1.2 | fold shift of cAMP functional potency, T59A (EC50 mutant/ EC50 WT) [4]: 0.2 | fold shift of cAMP functional potency, T273A (EC50 mutant/ EC50 WT) [5]: 0.1 | fold shift of cAMP functional potency, V270A (EC50 mutant/ EC50 WT) [6]: 0.6
Structure (SMILES): Cc1cc(Oc2cccc(O)c2O)ccc1-c1c(C)ncnc1C [PF-1437]
